This passage reports inhibition results from US20130150340A1, “6-(4-Hydroxy-phenyl)-1H-pyrazolo[3,4-b]pyridine-4-carboxylic acid amide derivatives as kinase inhibitors” (SANOFI, priority 2011, published 2013).

Each structure is given as a SMILES string.

In this experiment the target is T1, human full-length recombinant PKC βII (Homo sapiens, UniProt P05771).
T1 construct: Active human full-length recombinant PKC βII; purchased Invitrogen GmbH, Darmstadt, Germany
T1 sequence (P05771 1-673 isoform P05771-2): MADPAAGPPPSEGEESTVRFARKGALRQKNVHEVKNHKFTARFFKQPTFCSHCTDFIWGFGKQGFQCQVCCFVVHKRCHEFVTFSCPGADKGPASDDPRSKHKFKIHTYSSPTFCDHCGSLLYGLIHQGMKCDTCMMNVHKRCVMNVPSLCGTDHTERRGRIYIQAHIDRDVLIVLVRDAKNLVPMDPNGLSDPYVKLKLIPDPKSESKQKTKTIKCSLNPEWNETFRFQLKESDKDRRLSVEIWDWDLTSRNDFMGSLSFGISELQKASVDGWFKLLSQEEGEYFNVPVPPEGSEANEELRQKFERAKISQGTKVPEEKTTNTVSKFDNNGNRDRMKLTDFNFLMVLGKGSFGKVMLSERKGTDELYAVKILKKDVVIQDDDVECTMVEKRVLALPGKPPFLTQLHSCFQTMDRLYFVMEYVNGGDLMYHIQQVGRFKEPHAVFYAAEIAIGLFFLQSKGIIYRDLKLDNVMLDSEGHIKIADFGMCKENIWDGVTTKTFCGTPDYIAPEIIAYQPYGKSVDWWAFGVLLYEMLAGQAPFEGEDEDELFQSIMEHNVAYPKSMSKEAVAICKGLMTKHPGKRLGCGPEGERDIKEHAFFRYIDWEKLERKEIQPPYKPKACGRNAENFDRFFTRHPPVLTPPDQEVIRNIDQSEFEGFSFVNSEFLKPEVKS
Briefly: Determination of PKC βII inhibition (Caliper mobility-shift kinase assay). The format is biochemical. Conditions: example compounds at a final concentration of 1.14 μM (±0.15 μM); 60 min incubation at 32° C. The method, then:
Determination of PKC 3H Inhibition
PKC βII inhibition was determined according to the following protocol:
Active human full-length recombinant PKC βII and the peptide substrate, Fluorescein-RFARKGSLRQKNV, were purchased from Invitrogen GmbH, Darmstadt, Germany. Adenosine-5′-triphosphate (ATP), bovine serum albumine (BSA), dimethylsulphoxide (DMSO), 4-(2-hydroxyethyl)piperazine-1-ethanesulfonic acid (Hepes), Triton X-100, 1,2-Dioleoyl-sn-glycerol (DAG), L-α-Phosphatidyl-L-serine (PS), calcium chloride (CaCl2), and Pluronic F-68 were purchased from Sigma-Aldrich, Munich, Germany. Magnesium chloride, 1 M sodium hydroxide solution, 1M hydrochloric acid solution and EDTA were obtained from Merck Biosciences, Darmstadt, Germany.
Test compounds were diluted to three times the test concentration in buffer 1 (30 mM Hepes-NaOH, pH 7.4, 0.01% Pluronic F-68 and 3% (v/v) DMSO). The PKC βII enzyme was diluted to a concentration of 30 ng/ml in buffer 2 (30 mM Hepes-NaOH, pH 7.4, 15 mM MgCl2, 150 μM CaCl2, 150 μg/ml PS, 60 μg/ml DAG, and 0.045% (w/v) Triton X-100). The peptide substrate and ATP were diluted to concentrations of 3 μM and 120 μM, respectively, in buffer 2. Two μl of the compound solution were mixed with 2 μl of the diluted enzyme in a 384-well small volume microtiter plate (Greiner, Bio-One, Frickenhausen, Germany), and the kinase reaction was initiated by addition of 2 μl of the solution containing peptide substrate and ATP. After 60 min incubation at 32° C., the reaction was stopped by addition of 20 μl of a solution containing 130 mM Hepes-NaOH, pH 7.4, 0.0195% (v/v) Brij-35, 6.5 mM EDTA, 0.13% chip coating reagent 3 (Caliper Lifescience Inc, Hopkinton, Mass.) and 6.5% (v/v) DMSO. Phosphorylation of the substrate peptide was then detected on a Caliper 3000 instrument essentially as described by Pommereau et al (J. Biomol. Screening 2004, 9(5), […]), Separation conditions were as follows: Pressure −0.8 psi, upstream voltage −3000 V, downstream voltage −800 V. Positive controls (buffer 1 instead of compound) and negative controls (buffer 1 instead of compound and buffer 2 instead of kinase solution) were run in parallel on each plate. Fractional turnover (R) was determined as the height of the peak of the phosphorylated peptide product divided by the sum of the unphosphorylated substrate and phosphorylated product peak heights. Percent-inhibition values for the test compounds were determined using the formula
% Inhibition=100*(1−(Rcompound−Rnegative control)/(Rpositive control−Rnegative control).
One may read the inhibition as the change of the read-out against control, counted positive when it falls. For the compound `CCN1CCCC(NC(=O)c2cc(-c3ccc(O)cc3)nc3[nH]ncc23)C1` (centres unmarked) [Example 60, 6-(4-Hydroxy-phenyl)-1H-pyrazolo[3,4-b]pyridine-4-carboxylic acid (1-ethyl-piperidin-3-yl)-amide], the inhibition at 1.14 µM was determined as 54%. The result for `O=C(c1cc(-c2ccc(O)cc2)nc2[nH]ncc12)N1CCC2(CNCCO2)C1` (centres unmarked) [Example 31, [6-(4-Hydroxy-phenyl)-1H-pyrazolo[3,4-b]pyridin-4-yl]-(6-oxa-2,9-diaza-spiro[4.5]dec-2-yl)-methanone] reads 53%; that for `NC1CN(C(=O)c2cc(-c3ccc(O)cc3)nc3[nH]ncc23)C1` [Example 36, (3-Amino-azetidin-1-yl)-[6-(4-hydroxy-phenyl)-1H-pyrazolo[3,4-b]pyridin-4-yl]-methanone], 54%; that for `CO[C@H]1CNC[C@@H]1NC(=O)c1cc(-c2ccc(O)cc2)nc2[nH]ncc12` [Example 6, 6-(4-Hydroxy-phenyl)-1H-pyrazolo[3,4-b]pyridine-4-carboxylic acid ((3S,4S)-4-methoxy-pyrrolidin-3-yl)-amide], 87%. The value for `O=C(c1cc(-c2ccc(O)cc2)nc2[nH]ncc12)N1CC2CC1CN2` (centres unmarked) [Example 47, 2,5-Diaza-bicyclo[2.2.1]hept-2-yl-[6-(4-hydroxy-phenyl)-1H-pyrazolo[3,4-b]pyridin-4-yl]-methanone] was 81%; that for `CC(C)N1CCN(C(=O)c2cc(-c3ccc(O)cc3)nc3[nH]ncc23)CC1` [Example 56, [6-(4-Hydroxy-phenyl)-1H-pyrazolo[3,4-b]pyridin-4-yl]-(4-isopropyl-piperazin-1-yl)-methanone] was 23%. Consider `O=C(c1cc(-c2ccc(O)cc2)nc2[nH]ncc12)N1CCC2(CCNC2)C1` (centres unmarked) [Example 25, (2,7-Diaza-spiro[4.4]non-2-yl)-[6-(4-hydroxy-phenyl)-1H-pyrazolo[3,4-b]pyridin-4-yl]-methanone], for which the inhibition at 1.14 µM came out at 58%. The result for `CCN1CCCN(C(=O)c2cc(-c3ccc(O)cc3)nc3[nH]ncc23)CC1` [Example 64, (4-Ethyl-[1,4]diazepan-1-yl)-[6-(4-hydroxy-phenyl)-1H-pyrazolo[3,4-b]pyridin-4-yl]-methanone] reads 45%; that for `CN1CCN(C(=O)c2cc(-c3ccc(O)cc3)nc3[nH]ncc23)CC1` [Example 52, [6-(4-Hydroxy-phenyl)-1H-pyrazolo[3,4-b]pyridin-4-yl]-(4-methyl-piperazin-1-yl)-methanone], 38%. The value for `NC1CC(NC(=O)c2cc(-c3ccc(O)cc3)nc3[nH]ncc23)C1` (centres unmarked) [Example 14, 6-(4-Hydroxy-phenyl)-1H-pyrazolo[3,4-b]pyridine-4-carboxylic acid (3-amino-cyclobutyl)-amide] was 69%; that for `N[C@H]1CC[C@@H](NC(=O)c2cc(-c3ccc(O)cc3)nc3[nH]ncc23)CC1` [Example 8, 6-(4-Hydroxy-phenyl)-1H-pyrazolo[3,4-b]pyridine-4-carboxylic acid (cis-4-amino-cyclohexyl)-amide] was 46%. The result for `O=C(c1cc(-c2ccc(O)cc2)nc2[nH]ncc12)N1CCCC2(CCNC2)C1` (centres unmarked) [Example 24, (2,7-Diaza-spiro[4.5]dec-7-yl)-[6-(4-hydroxy-phenyl)-1H-pyrazolo[3,4-b]pyridin-4-yl]-methanone] reads 29%; that for `O=C(N[C@@H]1CCCNC1)c1cc(-c2ccc(O)cc2)nc2[nH]ncc12` [Example 19, 6-(4-Hydroxy-phenyl)-1H-pyrazolo[3,4-b]pyridine-4-carboxylic acid (R)-piperidin-3-ylamide], 83%; that for `CC(C)C1CN(C(=O)c2cc(-c3ccc(O)cc3F)nc3[nH]ncc23)C(C)(C)CN1` (centres unmarked) [Example 15, [6-(2-Fluoro-4-hydroxy-phenyl)-1H-pyrazolo[3,4-b]pyridin-4-yl]-(5-isopropyl-2,2-dimethyl-piperazin-1-yl)-methanone], 94%. Regarding `O=C(c1cc(-c2ccc(O)cc2)nc2[nH]ncc12)N1CCC2(CCCNC2)C1` (centres unmarked) [Example 23, (2,7-Diaza-spiro[4.5]dec-2-yl)-[6-(4-hydroxy-phenyl)-1H-pyrazolo[3,4-b]pyridin-4-yl]-methanone], the inhibition at 1.14 µM came to 52%. The result for `CCN1CC2CC1CN2C(=O)c1cc(-c2ccc(O)cc2)nc2[nH]ncc12` (centres unmarked) [Example 70, (5-Ethyl-2,5-diaza-bicyclo[2.2.1]hept-2-yl)-[6-(4-hydroxy-phenyl)-1H-pyrazolo[3,4-b]pyridin-4-yl]-methanone] reads 46%; that for `O=C(c1cc(-c2ccc(O)cc2)nc2[nH]ncc12)N1CCC2(CC1)CNCCO2` [Example 26, [6-(4-Hydroxy-phenyl)-1H-pyrazolo[3,4-b]pyridin-4-yl]-(1-oxa-4,9-diaza-spiro[5.5]undec-9-yl)-methanone], 36%; that for `CN1CCC(NC(=O)c2cc(-c3ccc(O)cc3)nc3[nH]ncc23)CC1` [Example 66, 6-(4-Hydroxy-phenyl)-1H-pyrazolo[3,4-b]pyridine-4-carboxylic acid (1-methyl-piperidin-4-yl)-amide], 59%. For `O=C(c1cc(-c2ccc(O)cc2)nc2[nH]ncc12)N1CCN(C2CCCCCC2)CC1` [Example 58, (4-Cycloheptyl-piperazin-1-yl)-[6-(4-hydroxy-phenyl)-1H-pyrazolo[3,4-b]pyridin-4-yl]-methanone], the inhibition at 1.14 µM worked out at 40%. The result for `NC1CCCC(NC(=O)c2cc(-c3ccc(O)cc3)nc3[nH]ncc23)C1` (centres unmarked) [Example 33, 6-(4-Hydroxy-phenyl)-1H-pyrazolo[3,4-b]pyridine-4-carboxylic acid (3-amino-cyclohexyl)-amide] reads 87%.

Consider `O=C(c1cc(-c2ccc(O)cc2)nc2[nH]ncc12)N1CCC2(CCNC2)CC1` [Example 43, (2,8-Diaza-spiro[4.5]dec-8-yl)-[6-(4-hydroxy-phenyl)-1H-pyrazolo[3,4-b]pyridin-4-yl]-methanone], for which the inhibition at 1.14 µM was found to be 52%.

In the case of `O=C(c1cc(-c2ccc(O)cc2)nc2[nH]ncc12)N1CCCNCC1` [Example 7, [1,4]Diazepan-1-yl-[6-(4-hydroxy-phenyl)-1H-pyrazolo[3,4-b]pyridin-4-yl]-methanone], the inhibition at 1.14 µM came to 84%.

`O=C(c1cc(-c2ccc(O)cc2)nc2[nH]ncc12)N1CC2(CCNCC2)C1` [Example 20, (2,7-Diaza-spiro[3.5]non-2-yl)-[6-(4-hydroxy-phenyl)-1H-pyrazolo[3,4-b]pyridin-4-yl]-methanone]: the inhibition at 1.14 µM is 77%. The result for `NC1CCCN(C(=O)c2cc(-c3ccc(O)cc3)nc3[nH]ncc23)C1` (centres unmarked) [Example 3, (3-Amino-piperidin-1-yl)-[6-(4-hydroxy-phenyl)-1H-pyrazolo[3,4-b]pyridin-4-yl]-methanone] reads 95%; that for `O=C(c1cc(-c2ccc(O)cc2)nc2[nH]ncc12)N1CCC2(CCNCC2)C1` [Example 22, (2,8-Diaza-spiro[4.5]dec-2-yl)-[6-(4-hydroxy-phenyl)-1H-pyrazolo[3,4-b]pyridin-4-yl]-methanone], 42%. The result for `COCCN1CCN(C(=O)c2cc(-c3ccc(O)cc3)nc3[nH]ncc23)CC1` [Example 71, [6-(4-Hydroxy-phenyl)-1H-pyrazolo[3,4-b]pyridin-4-yl]-[4-(2-methoxy-ethyl)-piperazin-1-yl]-methanone] reads 27%; that for `N[C@@H]1CCN(C(=O)c2cc(-c3ccc(O)cc3)nc3[nH]ncc23)C1` [Example 16, ((R)-3-Amino-pyrrolidin-1-yl)-[6-(4-hydroxy-phenyl)-1H-pyrazolo[3,4-b]-pyridin-4-yl]-methanone], 66%. With `O=C(c1cc(-c2ccc(O)cc2)nc2[nH]ncc12)N1CCC[C@H]1CN1CCCC1` [Example 54, [6-(4-Hydroxy-phenyl)-1H-pyrazolo[3,4-b]pyridin-4-yl]-((S)-2-pyrrolidin-1-ylmethyl-pyrrolidin-1-yl)-methanone], the inhibition at 1.14 µM worked out at 20%. The value for `CNC1CCN(C(=O)c2cc(-c3ccc(O)cc3)nc3[nH]ncc23)C1` (centres unmarked) [Example 39, [6-(4-Hydroxy-phenyl)-1H-pyrazolo[3,4-b]pyridin-4-yl]-(3-methylamino-pyrrolidin-1-yl)-methanone] was 62%.
